{"source": "patent US7972611B2", "about": "“Fungus-induced inflammation and eosinophil degranulation” (Mayo Foundation for Medical Education and Research, priority 2005, dated 2011)", "molecules": {"B1": {"name": "Calpastatin (protein, UniProt P20810 1-708, looked up)", "Calpastatin": "MNPTETKAIPVSQQMEGPHLPNKKKHKKQAVKTEPEKKSQSTKLSVVHEKKSQEGKPKEHTEPKSLPKQASDTGSNDAHNKKAVSRSAEQQPSEKSTEPKTKPQDMISAGGESVAGITAISGKPGDKKKEKKSLTPAVPVESKPDKPSGKSGMDAALDDLIDTLGGPEETEEENTTYTGPEVSDPMSSTYIEELGKREVTIPPKYRELLAKKEGITGPPADSSKPIGPDDAIDALSSDFTCGSPTAAGKKTEKEESTEVLKAQSAGTVRSAAPPQEKKRKVEKDTMSDQALEALSASLGTRQAEPELDLRSIKEVDEAKAKEEKLEKCGEDDETIPSEYRLKPATDKDGKPLLPEPEEKPKPRSESELIDELSEDFDRSECKEKPSKPTEKTEESKAAAPAPVSEAVCRTSMCSIQSAPPEPATLKGTVPDDAVEALADSLGKKEADPEDGKPVMDKVKEKAKEEDREKLGEKEETIPPDYRLEEVKDKDGKPLLPKESKEQLPPMSEDFLLDALSEDFSGPQNASSLKFEDAKLAAAISEVVSQTPASTTQAGAPPRDTSQSDKDLDDALDKLSDSLGQRQPDPDENKPMEDKVKEKAKAEHRDKLGERDDTIPPEYRHLLDDNGQDKPVKPPTKKSEDSKKPADDQDPIDALSGDLDSCPSTTETSQNTAKDKCKKAASSSKAPKNGGKAKDSAKTTEETSKPKDD"}, "B2": {"name": "SEQ ID NO:2: polypeptide of SEQ ID NO:2, Alternaria alternata endoxylanase, recombinantly produced in E. coli (protein, listed as Alternaria brassicicola)", "chain": "MHFRGSSIYFGIVALSSTSAVLGAVAPYGQCGGNGFQGETECAQGWSCVKSNDWYSQCINGGGNAPAPPAATGVAPAPVIPSAAPVPSMNASEPVAAPVAVAQPAATGGANGSAPDVAGTGANGAKCSLDAAFKSHGKKYIGVATDQGALSKGKNKEIIVANFGQVTPENSMKWDATEGTEGKFTLDGANALVSFATENKKLVRGHTTVWHSQLPTWVSSITDKTKLEEVMVAHIKKLMSTYAGKVYAWDVVNEIFNEDGSFRSSVFYNVLGENFVATAFATAKAADPEAKLYINDYNLDSPSYAKTKAMASNVKKWVAAGVPIDGIGSQSHLSGSWPISDYPAALKLLCESASECAMTELDIKGGAAADYKTAVTACLDVENCVGVTVWGVSDTDSWIGAAATPLLFDGSFQAKESYNGLCSALA"}, "B3": {"name": "Der f1: natural mite allergen protease (protein, UniProt P16311 99-321, looked up)", "Peptidase 1": "TSACRINSVNVPSELDLRSLRTVTPIRMQGGCGSCWAFSGVAATESAYLAYRNTSLDLSEQELVDCASQHGCHGDTIPRGIEYIQQNGVVEERSYPYVAREQRCRRPNSQHYGISNYCQIYPPDVKQIREALTQTHTAIAVIIGIKDLRAFQHYDGRTIIQHDNGYQPNYHAVNIVGYGSTQGDDYWIVRNSWDTTWGDSGYGYFQAGNNLMMIEQYPYVVIM"}, "B4": {"name": "papain: cysteine protease (protein, UniProt P00784 134-345, looked up)", "Papain": "IPEYVDWRQKGAVTPVKNQGSCGSCWAFSAVVTIEGIIKIRTGNLNEYSEQELLDCDRRSYGCNGGYPWSALQLVAQYGIHYRNTYPYEGVQRYCRSREKGPYAAKTDGVRQVQPYNEGALLYSIANQPVSVVLEAAGKDFQLYRGGIFVGPCGNKVDHAVAAVGYGPNYILIKNSWGTGWGENGYIRIKRGTGNSYGVCGLYTSSFYPVKN"}}, "note": "Starred links: 1 amine or outer side, 2 acyl side, 3 side chain; linkers in the order of their positions; H or OH if unused. Residues, ends and D or L forms follow the SMILES beside them. CO = O=C([*:1])[*:2]"}
{"test_system": "eosinophils", "experiment": "not given", "format": "cell-based, human", "details": "not given", "protocol": "(§1) FIG. 9. […] Alternaria extract, trypsin, or PMA was pretreated with pepstatin A agarose, control agarose, or APMSF, and added to the PAR-2 peptide substrate (Panel A) or eosinophils (Panel B).\n(§2) To monitor eosinophil function in response to extracts from Alternaria, degranulation of human eosinophils was measured by quantitating released eosinophil-derived neurotoxin (EDN) and/or MBP. In brief, freshly isolated eosinophils were suspended in HBSS with 25 mM HEPES and 0.01% gelatin at 5×10^5 cells/mL. Eosinophils and stimuli were incubated in 96-well tissue culture plates for 3 hours at 37° C. and 5% CO^2. Cell-free supernatants were stored at −20° C. A specific RIA quantitated eosinophil degranulation by measuring the concentration of EDN in the supernatants."}
{"molecule": "O=C(O)CN(CCN(CC(=O)O)CC(=O)O)CC(=O)O", "note": "[EDTA]", "eosinophil degranulation (EDN release) induced by Alternaria extract": "inhibited"}
{"molecule": "pertussis toxin", "Alternaria-induced eosinophil [Ca2+]i response and degranulation, sensitivity to pertussis toxin": "sensitive"}
{"test_system": "eosinophils", "experiment": "not given", "format": "cell-based, human", "details": "3 hours at 37° C.", "protocol": "as §1, §2"}
{"molecule": "CC(C)[C@H](NC(=O)[C@H](CCCNC(=N)N)NC(=O)N[C@@H](Cc1ccccc1)C(=O)O)C(=O)N[C@H](C=O)CCCNC(=N)N", "note": "[Antipain] ({Phe-CO}-Arg-Val-Arg-aldehyde)", "eosinophil degranulation (EDN release) induced by Alternaria extract": "did not inhibit"}
{"molecule": "CC(C)C[C@H](NC(=O)[C@@H](O)[C@H](N)Cc1ccccc1)C(=O)O", "note": "[Bestatin]", "eosinophil degranulation (EDN release) induced by Alternaria extract": "did not inhibit"}
{"molecule": "CCCCCCCCCCCCCCCCCCNC(=O)OCC(COC(=O)N(Cc1cccc[n+]1CC)C(C)=O)OC", "note": "(stereo not shown) [CV6209]", "eosinophil degranulation (EDN release) induced by Alternaria extract": "inhibited"}
{"molecule": "CCN(CC)CCCC(C)Nc1ccnc2cc(Cl)ccc12", "note": "(stereo not shown) [Chloroquine]", "eosinophil degranulation (EDN release) induced by Alternaria extract": "did not inhibit"}
{"molecule": "CC(C)C[C@H](NC(=O)[C@@H](NC(=O)N[C@@H](Cc1ccccc1)C(=O)O)[C@@H]1CCN=C(N)N1)C(=O)N[C@H](C=O)Cc1ccccc1", "note": "[Chymostatin]", "eosinophil degranulation (EDN release) induced by Alternaria extract": "did not inhibit"}
{"molecule": "COc1cc2c(c(OC)c1OC)-c1ccc(OC)c(=O)cc1[C@@H](NC(C)=O)CC2", "note": "[Colchitin]", "eosinophil degranulation (EDN release) induced by Alternaria extract": "did not inhibit"}
{"molecule": "C=C1[C@@H](C)[C@H]2[C@H](Cc3ccccc3)NC(=O)[C@]23OC(=O)/C=C/[C@H](O)CCC[C@@H](C)C/C=C/[C@H]3[C@@H]1O", "note": "[Cytochalasin B]", "eosinophil degranulation (EDN release) induced by Alternaria extract": "did not inhibit"}
{"molecule": "CC(C)C[C@H](NC(=O)[C@H]1O[C@@H]1C(=O)O)C(=O)NCCCCN=C(N)N", "note": "[E64]", "eosinophil degranulation (EDN release) induced by Alternaria extract": "did not inhibit"}
{"molecule": "O=C(O)CN(CCOCCOCCN(CC(=O)O)CC(=O)O)CC(=O)O", "note": "[EGTA]", "eosinophil degranulation (EDN release) induced by Alternaria extract": "inhibited"}
{"molecule": "C=CC[C@@H]1/C=C(\\C)C[C@H](C)C[C@H](OC)[C@H]2O[C@@](O)(C(=O)C(=O)N3CCCC[C@H]3C(=O)O[C@H](/C(C)=C/[C@@H]3CC[C@@H](O)[C@H](OC)C3)[C@H](C)[C@@H](O)CC1=O)[C@H](C)C[C@@H]2OC", "note": "[FK 506]", "eosinophil degranulation (EDN release) induced by Alternaria extract": "did not inhibit"}
{"molecule": "CN(C)CCCn1cc(C2=C(c3c[nH]c4ccccc34)C(=O)NC2=O)c2ccccc21", "note": "[GF109203X]", "eosinophil degranulation (EDN release) induced by Alternaria extract": "did not inhibit"}
{"molecule": "O=c1c(-c2ccc(O)cc2)coc2cc(O)cc(O)c12", "note": "[Genistein]", "eosinophil degranulation (EDN release) induced by Alternaria extract": "did not inhibit"}
{"molecule": "[La]", "note": "[Lanthunum]", "eosinophil degranulation (EDN release) induced by Alternaria extract": "inhibited"}
{"molecule": "CC(=O)N[C@@H](CC(C)C)C(=O)N[C@@H](CC(C)C)C(=O)N[C@H](C=O)CCCNC(=N)N", "note": "[Leupeptin]", "eosinophil degranulation (EDN release) induced by Alternaria extract": "did not inhibit"}
{"molecule": "COc1cccc(-c2cc(=O)c3ccccc3o2)c1N", "note": "[PD98059]", "eosinophil degranulation (EDN release) induced by Alternaria extract": "did not inhibit"}
{"molecule": "Cl.NCCc1ccc(S(=O)(=O)F)cc1", "note": "[Pefabloc SC]", "eosinophil degranulation (EDN release) induced by Alternaria extract": "did not inhibit"}
{"molecule": "CC(C)C[C@H](NP(=O)(O)O[C@@H]1O[C@@H](C)[C@H](O)[C@@H](O)[C@H]1O)C(=O)N[C@@H](Cc1c[nH]c2ccccc12)C(=O)O", "note": "[Phosphoramidon]", "eosinophil degranulation (EDN release) induced by Alternaria extract": "did not inhibit"}
{"molecule": "Cn1cc(C2=C(c3cn(CCCSC(=N)N)c4ccccc34)C(=O)NC2=O)c2ccccc21", "note": "[Ro-31-8220]", "eosinophil degranulation (EDN release) induced by Alternaria extract": "did not inhibit"}
{"molecule": "CC(=O)c1c(O)c(C)c(O)c(Cc2c(O)c3c(c(C(=O)/C=C/c4ccccc4)c2O)OC(C)(C)C=C3)c1O", "note": "[Rottelrin]", "eosinophil degranulation (EDN release) induced by Alternaria extract": "did not inhibit"}
{"molecule": "C[S+]([O-])c1ccc(-c2nc(-c3ccncc3)c(-c3ccc(F)cc3)[nH]2)cc1", "note": "(stereo not shown) [SB203580]", "eosinophil degranulation (EDN release) induced by Alternaria extract": "did not inhibit"}
{"molecule": "Cc1ccc(S(=O)(=O)N[C@@H](CCCCN)C(=O)CCl)cc1", "note": "[TLCK]", "eosinophil degranulation (EDN release) induced by Alternaria extract": "did not inhibit"}
{"molecule": "NCCCCCCNS(=O)(=O)c1cccc2c(Cl)cccc12", "note": "[W-7]", "eosinophil degranulation (EDN release) induced by Alternaria extract": "did not inhibit"}
{"molecule": "COC[C@H]1OC(=O)c2coc3c2[C@@]1(C)C1=C(C3=O)[C@@H]2CCC(=O)[C@@]2(C)C[C@H]1OC(C)=O", "note": "[Wortmannin]", "eosinophil degranulation (EDN release) induced by Alternaria extract": "did not inhibit"}
{"molecule": "Aprotinin", "eosinophil degranulation (EDN release) induced by Alternaria extract": "did not inhibit"}
{"molecule": "Jasplakinlide", "eosinophil degranulation (EDN release) induced by Alternaria extract": "inhibited"}
{"molecule": "heparin", "eosinophil degranulation (EDN release) induced by Alternaria extract": "inhibited"}
{"molecule": "B1", "eosinophil degranulation (EDN release) induced by Alternaria extract": "did not inhibit"}
{"test_system": "human eosinophils", "experiment": "Eosinophil degranulation (EDN release) and activation by fungal extracts and proteins", "format": "cell-based", "details": "eosinophils incubated with stimulus", "protocol": "(§3) FIG. 5. Effects of fungi on eosinophil degranulation. Eosinophils were incubated with culture extracts of various fungi for 3 hours.\n(§4) FIG. 21. Effects of Trichoderma xylanase on eosinophil degranulation (Panel A). Effects of Trichoderma xylanase on IL-5 production in mouse airways (Panel B). Panel A: Eosinophils were incubated with various concentrations of Trichoderma xylanase for 3 hours. EDN concentrations in the supernatants were measured by RIA as an indicator of degranulation. Panel B: Naive BALB/c mice were exposed intranasally to various doses of Trichoderma xylanase. After 12 hours, BAL fluids were collected and the concentrations of IL-5 were measured by ELISA. Mean±range, n=2.\n(§5) FIG. 25. Partial characterization of Alternaria extract. A, Before incubation with eosinophils, aliquots of 100 μg/mL Alternaria and 10 ng/mL IL-5 were heated at 37, 56, or 100° C. for 30 min or were treated at 4° C. for 30 min. Eosinophils were incubated in duplicate with these treated stimuli for 3 hours at 37° C. […] The molecular weight calibration of the column is shown above the elution profile.\n(§6) The following was performed to determine whether human eosinophils have an innate capacity to respond to environmental fungal organisms. Human eosinophils were incubated with extracts from common environmental airborne fungi.\nas §2"}
{"molecule": "B2", "eosinophil degranulation (EDN release)": "stimulated eosinophil degranulation"}
{"test_system": "human eosinophils", "experiment": "Eosinophil degranulation (EDN release) and activation by fungal extracts and proteins", "format": "cell-based", "details": "through PAR-2", "protocol": "as §3, §4, §5, §6, §2"}
{"molecule": "B3", "activation of human eosinophils by proteases": "activated"}
{"molecule": "B4", "activation of human eosinophils by proteases": "activated"}
{"test_system": "human eosinophils", "experiment": "Eosinophil degranulation (EDN release) and activation by fungal extracts and proteins", "format": "cell-based", "details": "treatment at 56° C. or lower temperatures", "protocol": "as §3, §4, §5, §6, §2"}
{"molecule": "IL-5: cytokine", "loss of activity to induce EDN release after treatment": "not"}
{"test_system": "human eosinophils", "experiment": "Eosinophil degranulation (EDN release) and activation by fungal extracts and proteins", "format": "cell-based", "details": "treatment at 100° C.", "protocol": "as §3, §4, §5, §6, §2"}
{"molecule": "IL-5: cytokine", "activity to induce EDN release after heat treatment": "abolished"}
